Reference: patent US10407409B2, “6-(5-hydroxy-1H-pyrazol-1-yl)nicotinamide inhibitors of PHD” (Takeda Pharmaceutical Company Limited, priority 2013, dated 2019)

What was measured:
[1] = target: PHD2 enzyme (residues 181-417) (Homo sapiens (Human), UniProt Q9GZT9); assay: Inhibition of PHD enzyme (LC/MS peptide hydroxylation assay); format: biochemical; conditions: PHD2 (residues 181-417) 5 nM, 60 min pre-incubation; -log(IC50), IC50 molar
How it was run: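 Hydroxylated peptide quantified by LC/MS after 60 min turnover of 1 uM biotinylated peptide with 2 uM 2-oxoglutarate and 1 mM ascorbate, stopped by excess tight-binding inhibitor. Beforehand, 5 nM enzyme and compound were preincubated 60 min at RT, pH 7.3 HEPES/KCl/TCEP/FeCl2/BSA buffer. Values as pIC50 (−log molar IC50).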

[2] = tested on: HIF1a protein in H9c2 rat cardiomyocytes; assay: Cell-based HIF-alpha stabilization assay (inhibition of PHD in cells); conditions: 24 hrs compound incubation, HIF1a protein by ELISA; for EC50: Rattus norvegicus, H9c2, 24 h, read-out: Inhibition of PHD in cells (pEC50) (converted)
How it was run: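 HIF1a stabilization was measured by ELISA on lysates of H9c2 rat cardiomyocytes after 24 h exposure to 11 serial compound concentrations, expressed relative to the desferrioxamine maximum. Curve fits gave EC50. EC50pos denotes the concentration producing half the desferrioxamine maximal response.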

PHD2 enzyme (residues 181-417), sequence (Q9GZT9 181-417): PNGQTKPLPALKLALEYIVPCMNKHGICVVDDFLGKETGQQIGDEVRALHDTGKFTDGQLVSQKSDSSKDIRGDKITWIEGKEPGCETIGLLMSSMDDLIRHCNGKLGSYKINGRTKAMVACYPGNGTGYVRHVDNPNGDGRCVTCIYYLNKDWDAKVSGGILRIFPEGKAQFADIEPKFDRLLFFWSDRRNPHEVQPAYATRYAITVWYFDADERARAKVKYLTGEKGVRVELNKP

Cc1cc(C#N)c(F)cc1-c1cnn(-c2ccc(C(=O)N3CCN(C)C4(CC4)C3)cn2)c1O [Example 399, 2-fluoro-4-(5-hydroxy-1-(5-(4-methyl-4,7-diazaspiro[2.5]octane-7-carbonyl)pyridin-2-yl)-1H-pyrazol-4-yl)-5-methylbenzonitrile]
PHD Inhibition (pIC50) [1]: 8.63
EC50 [2]: 1700 nM

Cc1cc(C#N)c(F)cc1-c1cnn(-c2ccc(C(=O)N3CCN(C)[C@@H](C)C3)cn2)c1O [Example 400, (S)-4-(1-(5-(3,4-dimethylpiperazine-1-carbonyl)pyridin-2-yl)-5-hydroxy-1H-pyrazol-4-yl)-2-fluoro-5-methylbenzonitrile]
PHD Inhibition (pIC50) [1]: 8.50
EC50 [2]: 1660 nM

Cc1cc(C#N)c(F)cc1-c1cnn(-c2ccc(C(=O)N3CCN(C)[C@H](C)C3)cn2)c1O [Example 401, (R)-4-(1-(5-(3,4-dimethylpiperazine-1-carbonyl)pyridin-2-yl)-5-hydroxy-1H-pyrazol-4-yl)-2-fluoro-5-methylbenzonitrile]
PHD Inhibition (pIC50) [1]: 8.44
EC50 [2]: 1580 nM

COCCCNC(=O)c1ccc(-n2ncc(-c3ccc(C#N)c(C)c3)c2O)nc1 [Example 402, 6-(4-(4-cyano-3-methylphenyl)-5-hydroxy-1H-pyrazol-1-yl)-N-(3-methoxypropyl)nicotinamide]
PHD Inhibition (pIC50) [1]: 7.99
EC50 [2]: 4370 nM

COCCCNC(=O)c1ccc(-n2ncc(-c3cc(C)c(C#N)cc3C)c2O)nc1 [Example 403, 6-(4-(4-cyano-2,5-dimethylphenyl)-5-hydroxy-1H-pyrazol-1-yl)-N-(3-methoxypropyl)nicotinamide]
PHD Inhibition (pIC50) [1]: 7.78
EC50 [2]: 1860 nM

COCCCNC(=O)c1ccc(-n2ncc(-c3c(C)cc(C#N)cc3F)c2O)nc1 [Example 404, 6-(4-(4-cyano-2-fluoro-6-methylphenyl)-5-hydroxy-1H-pyrazol-1-yl)-N-(3-methoxypropyl)nicotinamide]
PHD Inhibition (pIC50) [1]: 8.01
EC50 [2]: 631 nM

COCCCNC(=O)c1ccc(-n2ncc(-c3cc(F)c(C#N)cc3C)c2O)nc1 [Example 405, 6-(4-(4-cyano-5-fluoro-2-methylphenyl)-5-hydroxy-1H-pyrazol-1-yl)-N-(3-methoxypropyl)nicotinamide]
PHD Inhibition (pIC50) [1]: 8.48
EC50 [2]: 324 nM

COCCCNC(=O)c1ccc(-n2ncc(-c3ccc(C#N)c(F)c3C)c2O)nc1 [Example 406, 6-(4-(4-cyano-3-fluoro-2-methylphenyl)-5-hydroxy-1H-pyrazol-1-yl)-N-(3-methoxypropyl)nicotinamide]
PHD Inhibition (pIC50) [1]: 8.49
EC50 [2]: 191 nM

COCCCNC(=O)c1ccc(-n2ncc(-c3ccc(C#N)c(C)c3C)c2O)nc1 [Example 409, 6-(4-(4-cyano-2,3-dimethylphenyl)-5-hydroxy-1H-pyrazol-1-yl)-N-(3-methoxypropyl)nicotinamide]
PHD Inhibition (pIC50) [1]: 8.24
EC50 [2]: 257 nM

COCCCNC(=O)c1ccc(-n2ncc(-c3ccc(C#N)cc3COC)c2O)nc1 [Example 410, 6-(4-(4-cyano-2-(methoxymethyl)phenyl)-5-hydroxy-1H-pyrazol-1-yl)-N-(3-methoxypropyl)nicotinamide]
PHD Inhibition (pIC50) [1]: 8.07
EC50 [2]: 513 nM

COCCCNC(=O)c1ccc(-n2ncc(-c3ccc(C#N)c(OC)c3C)c2O)nc1 [Example 411, 6-(4-(4-cyano-3-methoxy-2-methylphenyl)-5-hydroxy-1H-pyrazol-1-yl)-N-(3-methoxypropyl)nicotinamide]
PHD Inhibition (pIC50) [1]: 8.20
EC50 [2]: 676 nM

Cc1cc(C#N)ccc1-c1cnn(-c2ccc(C(=O)N3CC[C@H](N(C)C)C3)cn2)c1O [Example 412, (S)-4-(1-(5-(3-(dimethylamino)pyrrolidine-1-carbonyl)pyridin-2-yl)-5-hydroxy-1H-pyrazol-4-yl)-3-methylbenzonitrile]
PHD Inhibition (pIC50) [1]: 8.11
EC50 [2]: 282 nM

Cc1cc(C#N)ccc1-c1cnn(-c2ccc(C(=O)N3CC[C@@H](N(C)C)C3)cn2)c1O [Example 413, (R)-4-(1-(5-(3-(dimethylamino)pyrrolidine-1-carbonyl)pyridin-2-yl)-5-hydroxy-1H-pyrazol-4-yl)-3-methylbenzonitrile]
PHD Inhibition (pIC50) [1]: 8.10
EC50 [2]: 2090 nM

Cc1cc(C#N)ccc1-c1cnn(-c2ccc(C(=O)N3CCN(C4CC4)CC3)cn2)c1O [Example 414, 4-(1-(5-(4-cyclopropylpiperazine-1-carbonyl)pyridin-2-yl)-5-hydroxy-1H-pyrazol-4-yl)-3-methylbenzonitrile]
PHD Inhibition (pIC50) [1]: 8.39
EC50 [2]: 832 nM

CCCN1CCN(C(=O)c2ccc(-n3ncc(-c4ccc(C#N)cc4C)c3O)nc2)CC1 [Example 415, 4-(5-hydroxy-1-(5-(4-propylpiperazine-1-carbonyl)pyridin-2-yl)-1H-pyrazol-4-yl)-3-methylbenzonitrile]
PHD Inhibition (pIC50) [1]: 8.41
Inhibition of PHD in cells (pEC50) [2]: 6.20

Cc1cc(C#N)ccc1-c1cnn(-c2ccc(C(=O)N3CCC(N(C)C)CC3)cn2)c1O [Example 416, 4-(1-(5-(4-(dimethylamino)piperidine-1-carbonyl)pyridin-2-yl)-5-hydroxy-1H-pyrazol-4-yl)-3-methylbenzonitrile]
PHD Inhibition (pIC50) [1]: 7.78
EC50 [2]: 1410 nM

Cc1cc(C#N)ccc1-c1cnn(-c2ccc(C(=O)N3CC[C@@H]4CN(C)C[C@@H]4C3)cn2)c1O [Example 417, 4-(5-hydroxy-1-(5-((3aR,7aS)-2-methyloctahydro-1H-pyrrolo[3,4-c]pyridine-5-carbonyl)pyridin-2-yl)-1H-pyrazol-4-yl)-3-methylbenzonitrile]
PHD Inhibition (pIC50) [1]: 7.87
EC50 [2]: 575 nM

Cc1cc(C#N)ccc1-c1cnn(-c2ccc(C(=O)N3CCN(CC4CC4)CC3)cn2)c1O [Example 418, 4-(1-(5-(4-(cyclopropylmethyl)piperazine-1-carbonyl)pyridin-2-yl)-5-hydroxy-1H-pyrazol-4-yl)-3-methylbenzonitrile]
PHD Inhibition (pIC50) [1]: 8.17
EC50 [2]: 1170 nM

Cc1cc(C#N)ccc1-c1cnn(-c2ccc(C(=O)N3CCC(CN(C)C)CC3)cn2)c1O [Example 419, 4-(1-(5-(4-((dimethylamino)methyl)piperidine-1-carbonyl)pyridin-2-yl)-5-hydroxy-1H-pyrazol-4-yl)-3-methylbenzonitrile]
PHD Inhibition (pIC50) [1]: 7.98
EC50 [2]: 631 nM

Cc1cc(C#N)ccc1-c1cnn(-c2ccc(C(=O)N(C3CC3)C3CCN(C)CC3)cn2)c1O [Example 420, 6-(4-(4-cyano-2-methylphenyl)-5-hydroxy-1H-pyrazol-1-yl)-N-cyclopropyl-N-(1-methylpiperidin-4-yl)nicotinamide]
PHD Inhibition (pIC50) [1]: 7.87
EC50 [2]: 537 nM

Cc1cc(C#N)ccc1-c1cnn(-c2ccc(C(=O)N3CCC(N4CCOCC4)CC3)cn2)c1O [Example 421, 4-(5-hydroxy-1-(5-(4-morpholinopiperidine-1-carbonyl)pyridin-2-yl)-1H-pyrazol-4-yl)-3-methylbenzonitrile]
PHD Inhibition (pIC50) [1]: 8.31
EC50 [2]: 661 nM

COCCN(C(=O)c1ccc(-n2ncc(-c3ccc(C#N)cc3C)c2O)nc1)C1CCN(C)CC1 [Example 422, 6-(4-(4-cyano-2-methylphenyl)-5-hydroxy-1H-pyrazol-1-yl)-N-(2-methoxyethyl)-N-(1-methylpiperidin-4-yl)nicotinamide]
PHD Inhibition (pIC50) [1]: 7.87
EC50 [2]: 501 nM

Cc1cc(C#N)ccc1-c1cnn(-c2ccc(C(=O)N3CCN(CCN(C)C)CC3)cn2)c1O [Example 423, 4-(1-(5-(4-(2-(dimethylamino)ethyl)piperazine-1-carbonyl)pyridin-2-yl)-5-hydroxy-1H-pyrazol-4-yl)-3-methylbenzonitrile]
PHD Inhibition (pIC50) [1]: 7.99
EC50 [2]: 708 nM

CCN1CCC(N(C)C(=O)c2ccc(-n3ncc(-c4ccc(C#N)cc4C)c3O)nc2)CC1 [Example 425, 6-(4-(4-cyano-2-methylphenyl)-5-hydroxy-1H-pyrazol-1-yl)-N-(1-ethylpiperidin-4-yl)-N-methylnicotinamide]
PHD Inhibition (pIC50) [1]: 7.74
EC50 [2]: 776 nM

COCCCNC(=O)c1ccc(-n2ncc(-c3cc(OC)c(C#N)cc3C)c2O)nc1 [Example 426, 6-(4-(4-cyano-5-methoxy-2-methylphenyl)-5-hydroxy-1H-pyrazol-1-yl)-N-(3-methoxypropyl)nicotinamide]
PHD Inhibition (pIC50) [1]: 8.18
EC50 [2]: 2140 nM

COCCN1CCC(N(C)C(=O)c2ccc(-n3ncc(-c4ccc(C#N)cc4C)c3O)nc2)CC1 [Example 427, 6-(4-(4-cyano-2-methylphenyl)-5-hydroxy-1H-pyrazol-1-yl)-N-(1-(2-methoxyethyl)piperidin-4-yl)-N-methylnicotinamide]
PHD Inhibition (pIC50) [1]: 7.83
EC50 [2]: 646 nM
